Reference: patent US11286248B2, “Pyrazine-2(1H)-ketone compound acting as FGFR inhibitor” (ZHANGZHOU PIEN TZE HUANG PHARMACEUTICAL CO., LTD., priority 2018, dated 2022)
Where a name gives a salt, the structure may show the parent alone.

Columns and labels:
Assay type in all cases: biochemical
human FGFR1 = target: T1, human FGFR1 (Homo sapiens, UniProt P11362); assay: 33P isotope-labeled kinase activity test (Reaction Biology Corp), wild-type FGFR1; conditions: 33P-ATP 5 μM, substrate pEY + Mn, 120 minutes at room temperature
T1 construct: purchased Invitrogen PV3146
T1 sequence (P11362 22-822): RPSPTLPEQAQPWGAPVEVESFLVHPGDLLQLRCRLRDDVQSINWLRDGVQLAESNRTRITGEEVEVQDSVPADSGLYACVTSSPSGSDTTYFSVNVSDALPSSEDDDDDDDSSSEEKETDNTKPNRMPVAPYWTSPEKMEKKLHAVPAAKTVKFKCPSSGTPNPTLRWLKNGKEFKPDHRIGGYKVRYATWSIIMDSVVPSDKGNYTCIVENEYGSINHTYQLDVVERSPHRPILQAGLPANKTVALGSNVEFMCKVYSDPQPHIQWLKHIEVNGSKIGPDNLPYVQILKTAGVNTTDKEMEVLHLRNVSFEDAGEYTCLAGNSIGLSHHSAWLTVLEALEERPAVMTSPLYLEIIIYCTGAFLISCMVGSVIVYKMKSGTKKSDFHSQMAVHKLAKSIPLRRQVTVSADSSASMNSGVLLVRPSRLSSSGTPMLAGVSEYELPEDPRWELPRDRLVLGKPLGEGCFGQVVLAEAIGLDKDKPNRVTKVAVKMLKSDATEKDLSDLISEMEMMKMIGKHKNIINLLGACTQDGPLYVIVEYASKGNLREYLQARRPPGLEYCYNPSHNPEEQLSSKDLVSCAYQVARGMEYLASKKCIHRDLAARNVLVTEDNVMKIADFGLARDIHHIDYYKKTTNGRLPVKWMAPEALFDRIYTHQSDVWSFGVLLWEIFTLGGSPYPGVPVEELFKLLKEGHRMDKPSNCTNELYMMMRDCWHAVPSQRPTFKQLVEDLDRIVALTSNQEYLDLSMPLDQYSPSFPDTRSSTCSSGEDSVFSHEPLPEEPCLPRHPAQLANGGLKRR
Protocol: (§1) The IC50 value is determined using ^33P isotope-labeled kinase activity test (Reaction Biology Corp) to evaluate the inhibitory ability of the compounds to be tested on human FGFR1 and FGFR4.
(§2) Buffer conditions: 20 mM 4-(2-hydroxyethyl)-1-piperazineethanesulfonic acid (Hepes) (pH 7.5), 10 mM MgCl2, 1 mM ethylene glycol-bis-(2-aminoethyl ether)tetraacetic acid (EGTA), 0.02% polyoxyethylene lauryl ether (Brij35), 0.02 mg/ml bovine serum albumin (BSA), 0.1 mM sodium vanadate (Na3VO4), 2 mM dithiothreitol (DTT), and 1% DMSO.
Test steps: At room temperature, the compounds to be tested are dissolved in DMSO to prepare a 10 mM solution for use. The substrate is dissolved in the newly prepared buffer, and the kinase to be tested is added and mixed well. The DMSO solution in which the compounds to be tested are dissolved is added to the above-mentioned homogeneous reaction solution using acoustic technology (Echo 550). […] After incubating for 15 minutes, ^33P-ATP (activity: 0.01 μCi/μl, with corresponding concentration being listed in table 1) is added to start the reaction. The supplier article number, batch number, and the concentration information in the reaction solution of FGFR1, FGFR4 and substrates thereof are listed in table 1. […] The kinase activity data is expressed by comparing the kinase activity of the groups containing the compounds to be tested with that of the blank group (containing only DMSO). The IC50 value is obtained by curve fitting using Prism4 software (GraphPad), and the experimental results are shown in table 2.

FGFR3 = target: T2, FGFR3 (Homo sapiens, UniProt P22607); assay: 33P isotope-labeled kinase activity test (Reaction Biology Corp), wild-type FGFR3; conditions: for Selectivity FGFR1/3: ratio of IC50 FGFR1 to IC50 FGFR3; for IC50: wild-type kinase, 33P-ATP 30 μM, substrate pEY + Mn, 120 minutes at room temperature
T2 construct: purchased Invitrogen PV3145
T2 sequence (P22607 23-806): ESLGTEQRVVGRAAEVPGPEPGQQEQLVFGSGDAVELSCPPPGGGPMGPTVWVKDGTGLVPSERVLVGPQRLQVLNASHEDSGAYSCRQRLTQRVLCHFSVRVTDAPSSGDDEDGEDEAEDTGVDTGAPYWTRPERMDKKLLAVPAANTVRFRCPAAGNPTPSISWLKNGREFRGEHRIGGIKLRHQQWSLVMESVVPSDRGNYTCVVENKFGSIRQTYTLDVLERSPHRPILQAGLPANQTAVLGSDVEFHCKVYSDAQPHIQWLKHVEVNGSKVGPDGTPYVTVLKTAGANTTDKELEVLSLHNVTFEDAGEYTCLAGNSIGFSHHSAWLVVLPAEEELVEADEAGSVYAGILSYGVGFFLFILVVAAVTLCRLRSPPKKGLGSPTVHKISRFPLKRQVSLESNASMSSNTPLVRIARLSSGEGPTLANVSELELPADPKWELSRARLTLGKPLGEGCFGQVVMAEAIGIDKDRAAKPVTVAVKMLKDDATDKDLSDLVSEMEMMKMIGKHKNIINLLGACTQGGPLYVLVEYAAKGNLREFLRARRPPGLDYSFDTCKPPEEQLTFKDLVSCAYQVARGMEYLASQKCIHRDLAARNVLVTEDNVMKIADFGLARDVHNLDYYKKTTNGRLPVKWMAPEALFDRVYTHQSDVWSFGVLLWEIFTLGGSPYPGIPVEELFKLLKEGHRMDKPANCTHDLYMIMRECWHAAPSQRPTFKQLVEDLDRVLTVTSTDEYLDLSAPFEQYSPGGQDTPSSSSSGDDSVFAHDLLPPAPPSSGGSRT

FGFR2 = target: T3, FGFR2 (Homo sapiens, UniProt P21802); assay: 33P isotope-labeled kinase activity test (Reaction Biology Corp), wild-type FGFR2; conditions: for Selectivity FGFR1/2: ratio of IC50 FGFR1 to IC50 FGFR2; for IC50: wild-type kinase, 33P-ATP 5 μM, substrate pEY + Mn, 120 minutes at room temperature
T3 construct: purchased Invitrogen PV3368
T3 sequence (P21802 22-821): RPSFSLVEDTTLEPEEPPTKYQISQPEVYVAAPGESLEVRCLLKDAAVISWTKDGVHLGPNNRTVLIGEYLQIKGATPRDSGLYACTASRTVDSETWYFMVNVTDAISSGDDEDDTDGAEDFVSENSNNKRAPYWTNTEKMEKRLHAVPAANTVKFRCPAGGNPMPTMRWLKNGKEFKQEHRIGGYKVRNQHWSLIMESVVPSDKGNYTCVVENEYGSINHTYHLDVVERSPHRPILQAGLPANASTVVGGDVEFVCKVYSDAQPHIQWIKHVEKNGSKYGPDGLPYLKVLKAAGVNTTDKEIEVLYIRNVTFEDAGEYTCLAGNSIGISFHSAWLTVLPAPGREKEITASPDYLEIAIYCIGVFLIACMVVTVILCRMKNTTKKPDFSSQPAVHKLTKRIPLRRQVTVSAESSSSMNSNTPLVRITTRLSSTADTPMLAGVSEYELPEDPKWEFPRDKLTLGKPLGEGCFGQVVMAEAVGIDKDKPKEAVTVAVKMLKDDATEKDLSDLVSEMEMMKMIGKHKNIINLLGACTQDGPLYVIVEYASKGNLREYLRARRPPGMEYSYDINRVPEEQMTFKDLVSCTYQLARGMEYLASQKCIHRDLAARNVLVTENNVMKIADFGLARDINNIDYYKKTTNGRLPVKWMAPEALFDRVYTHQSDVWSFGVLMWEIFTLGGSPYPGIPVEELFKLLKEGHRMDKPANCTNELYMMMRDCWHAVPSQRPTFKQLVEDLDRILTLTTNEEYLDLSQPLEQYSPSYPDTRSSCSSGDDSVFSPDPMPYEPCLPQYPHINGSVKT

human FGFR4 = target: T4, human FGFR4 (Homo sapiens, UniProt P22455); assay: 33P isotope-labeled kinase activity test (Reaction Biology Corp), wild-type FGFR4; conditions: 33P-ATP 2.5 μM, substrate pEY + Mn, 120 minutes at room temperature
T4 construct: purchased Invitrogen P3054
T4 sequence (P22455 22-802): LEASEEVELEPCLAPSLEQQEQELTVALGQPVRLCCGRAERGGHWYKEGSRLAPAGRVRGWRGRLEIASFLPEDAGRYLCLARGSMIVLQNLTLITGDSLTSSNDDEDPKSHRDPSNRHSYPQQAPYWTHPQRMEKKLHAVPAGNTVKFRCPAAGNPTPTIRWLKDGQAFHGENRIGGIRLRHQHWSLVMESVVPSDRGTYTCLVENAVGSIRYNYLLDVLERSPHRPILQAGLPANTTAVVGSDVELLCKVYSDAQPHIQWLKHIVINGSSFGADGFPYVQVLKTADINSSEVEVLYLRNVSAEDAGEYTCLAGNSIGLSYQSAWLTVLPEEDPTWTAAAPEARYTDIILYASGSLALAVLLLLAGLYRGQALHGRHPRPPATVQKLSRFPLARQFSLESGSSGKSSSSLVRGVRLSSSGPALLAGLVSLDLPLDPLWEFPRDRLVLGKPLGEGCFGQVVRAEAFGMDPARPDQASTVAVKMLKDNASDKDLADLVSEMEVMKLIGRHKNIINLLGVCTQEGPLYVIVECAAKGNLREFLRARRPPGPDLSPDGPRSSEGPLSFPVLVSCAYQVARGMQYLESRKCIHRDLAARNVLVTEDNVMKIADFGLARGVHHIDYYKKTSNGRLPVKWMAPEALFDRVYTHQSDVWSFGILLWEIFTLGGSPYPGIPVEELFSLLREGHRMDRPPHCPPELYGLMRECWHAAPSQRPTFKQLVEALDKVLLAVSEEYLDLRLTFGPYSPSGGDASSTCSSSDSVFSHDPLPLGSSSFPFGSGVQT
Protocol: as §1, §2
Test steps: At room temperature, the compounds to be tested are dissolved in DMSO to prepare a 10 mM solution for use. The substrate is dissolved in the newly prepared buffer, and the kinase to be tested is added and mixed well. The DMSO solution in which the compounds to be tested are dissolved is added to the above-mentioned homogeneous reaction solution using acoustic technology (Echo 550). […] After incubating for 15 minutes, ^33P-ATP (activity: 0.01 μCi/μl, with corresponding concentration being listed in table 1) is added to start the reaction. The supplier article number, batch number, and the concentration information in the reaction solution of FGFR1, FGFR4 and substrates thereof are listed in table 1. After the reaction is carried out at room temperature for 120 minutes, the reaction solution is spotted on P81 ion exchange filter paper (Whatman #3698-915). After the filter paper is repeatedly washed with 0.75% phosphoric acid solution, the radioactivity of the phosphorylated substrate remaining on the filter paper is measured. The kinase activity data is expressed by comparing the kinase activity of the groups containing the compounds to be tested with that of the blank group (containing only DMSO). The IC50 value is obtained by curve fitting using Prism4 software (GraphPad), and the experimental results are shown in table 2.

IC50 (human FGFR1) | Selectivity FGFR1/3 (FGFR3) | IC50 (FGFR3) | Selectivity FGFR1/2 (FGFR2) | IC50 (FGFR2) | IC50 (human FGFR4) | Compound
183 nM | 6.57 | 27.8 nM | 4.15 | 44 nM |  | COc1cc(OC)cc(-c2nc(-c3nc(-c4cnn(C5CCN(C)CC5)c4C)cnc3N)cn(C)c2=O)c1 [Trifluoroacetate salt of 0031]
727 nM | 89.67 | 8.11 nM | 48.27 | 15.1 nM |  | COc1cc(OC)cc(-c2nc(-c3nc(-c4cccnc4)cnc3N)cn(C)c2=O)c1 [Trifluoroacetate salt of 0018]
3.08 nM | 3.26 | 0.944 nM | 5.78 | 0.533 nM |  | COc1cc(OC)c(Cl)c(-c2nc(-c3nc(-c4ccc(C5CCN(C)CC5)nc4)cnc3N)cn(C)c2=O)c1 [Trifluoroacetate salt of 0060]
54 nM | 5.12 | 10.5 nM | 7.05 | 7.66 nM |  | COc1cc(OC)cc(-c2nc(-c3nc(-c4cn(C5CCNCC5)nc4C)cnc3N)cn(C)c2=O)c1 [compound 0028]
78.7 nM | 12.48 | 6.31 nM | 8.95 | 8.79 nM |  | COc1cc(OC)cc(-c2nc(-c3nc(-c4cnn(C)c4)cnc3N)cn(C)c2=O)c1 [compound 0017]
181 nM | 11.18 | 16.2 nM | 7.97 | 22.7 nM |  | COc1cc(OC)cc(-c2nc(-c3nc(-c4cnn(CC(O)CC(F)(F)F)c4C)cnc3N)cn(C)c2=O)c1 (single isomer, unassigned) [compound 0064]
70.8 nM | 5.78 | 12.3 nM | 4.39 | 16.1 nM |  | COc1cc(OC)cc(-c2nc(-c3nc(-c4cn(CC(O)CC(F)(F)F)nc4C)cnc3N)cn(C)c2=O)c1 (single isomer, unassigned) [compound 0063]
126 nM | 11.76 | 10.8 nM | 10.62 | 11.9 nM |  | COc1cc(OC)cc(-c2nc(-c3nc(-c4cncc(C)c4)cnc3N)cn(C)c2=O)c1 [compound 0056]
29.2 nM | 5.92 | 4.93 nM | 6.94 | 4.21 nM | 8640 nM | COc1cc(OC)cc(-c2nc(-c3nc(-c4cn(C5CCN(C)CC5)nc4C)cnc3N)cn(C)c2=O)c1 [Trifluoroacetate salt of 0016]
> 10000 nM | >978.5 | 10.2 nM | >68.4 | 146 nM |  | CCNC(=O)c1ccc(-c2cnc(N)c(-c3cn(C)c(=O)c(-c4cc(OC)cc(OC)c4)n3)n2)cn1 [compound 0038]
269 nM | 4.65 | 57.8 nM | 4.79 | 56.1 nM |  | COc1cc(OC)cc(-c2nc(-c3nc(-c4cn(CCO)nc4C)cnc3N)cn(C)c2=O)c1 [compound 0048]
> 10000 nM |  | 49.4 nM |  | 3060 nM |  | COc1cc(OC)cc(-c2nc(-c3nc(-c4ccc(C5(C#N)CCC5)nc4)cnc3N)cn(C)c2=O)c1 [compound 0059]
2.33 nM | 1.52 | 1.54 nM | 4.14 | 0.56 nM |  | COc1cc(OC)c(F)c(-c2nc(-c3nc(-c4cn(C)nc4C)cnc3N)cn(C)c2=O)c1 [Trifluoroacetate salt of 0029]
201 nM | 5.85 | 34.3 nM | 3.07 | 65.5 nM |  | COc1cc(OC)cc(-c2nc(-c3nc(-c4cnn(CCO)c4C)cnc3N)cn(C)c2=O)c1 [compound 0049]
2280 nM | 19.15 | 119 nM | 7.27 | 314 nM |  | COc1cc(OC)cc(-c2nc(-c3nc(-c4cnc5c(c4)CC(=O)N5C)cnc3N)cn(C)c2=O)c1 [Hydrochloride salt of 0033]
29.3 nM | 5.81 | 5.04 nM | 5.02 | 5.83 nM |  | COCCN1CCC(n2cc(-c3cnc(N)c(-c4cn(C)c(=O)c(-c5cc(OC)cc(OC)c5)n4)n3)c(C)n2)CC1 [compound 0035]
164 nM | 5.52 | 29.8 nM | 5.11 | 32.1 nM |  | COc1cc(OC)cc(-c2nc(-c3nc(-c4cn(C)nc4C)cnc3N)cn(C)c2=O)c1 [Hydrochloride salt of 0023]
53 nM | 6.63 | 7.99 nM | 4.17 | 12.7 nM |  | COc1cc(OC)cc(-c2nc(-c3nc(-c4cn(CC5(C#N)CC5)nc4C)cnc3N)cn(C)c2=O)c1 [compound 0043]
13.2 nM | 7.28 | 1.81 nM | 5.31 | 2.48 nM | > 10000 nM | COc1cc(OC)cc(-c2nc(-c3nc(-c4ccc(C5CCN(C)CC5)nc4)cnc3N)cn(C)c2=O)c1 [Hydrochloride salt of 0036]
61.6 nM | 8.40 | 7.33 nM | 5.47 | 11.2 nM |  | COc1cc(OC)cc(-c2nc(-c3nc(-c4cn(CC(O)CC(F)(F)F)nc4C)cnc3N)cn(C)c2=O)c1 (single isomer, unassigned) [compound 0062]
407 nM | 9.01 | 45.2 nM | 7.56 | 53.9 nM |  | COc1cc(OC)cc(-c2nc(-c3nc(-c4cnn(CC(O)CC(F)(F)F)c4C)cnc3N)cn(C)c2=O)c1 (single isomer, unassigned) [compound 0065]
29.3 nM | 7.12 | 4.11 nM | 4.48 | 6.54 nM |  | COc1cc(OC)cc(-c2nc(-c3nc(-c4cnn(CC5(C#N)CC5)c4C)cnc3N)cn(C)c2=O)c1 [compound 0051]
